According to ChEMBL document CHEMBL4340531, “Synthesis and biological evaluation of solithromycin analogs against multidrug resistant pathogens” (Bioorg Med Chem Lett, 2019):
Values after ≈ are worked out from the molar mass of the structure shown.

How the values were obtained:
Escherichia coli [1] = test: Antibacterial activity against resistant Escherichia coli DK incubated for 20 hrs by broth dilution method; format: functional
Escherichia coli [2] = test: Antibacterial activity against resistant Escherichia coli DK2058G incubated for 20 hrs by broth dilution method; format: functional
[3] = Cytotoxicity against African green monkey Vero cells assessed as reduction in cell viability after 72 hrs by MTS/PMS assay; format: cell-based; conditions: chlorocebus sabaeus
Staphylococcus aureus [4] = test: Antibacterial activity against wild type Staphylococcus aureus ATCC 29213 incubated for 18 hrs by broth dilution method; format: functional; conditions: ATCC 29213, 18 h
Escherichia coli [5] = test: Antibacterial activity against resistant Escherichia coli SQ171 incubated for 20 hrs by broth dilution method; format: functional; conditions: SQ171, 20 h
[6] = Selectivity index, ratio of CC50 for African green monkey Vero cells to MIC for multi drug resistant Enterococcus faecium NCTC 7171; format: toxicity; conditions: read-out: Selectivity Index
Escherichia coli [7] = test: Antibacterial activity against resistant Escherichia coli SQ1712058G incubated for 20 hrs by broth dilution method; format: functional
Acinetobacter baumannii [8] = test: Antibacterial activity against multi drug resistant Acinetobacter baumannii ATCC 19606 incubated for 24 hrs by broth dilution method; format: functional; conditions: ATCC 19606 = CIP 70.34 = JCM 6841, 24 h
Escherichia coli [9] = test: Potency index, ratio of solithromycin MIC to compound MIC for resistant Escherichia coli DK; format: functional
Enterococcus faecium [10] = test: Antibacterial activity against multi drug resistant Enterococcus faecium NCTC 7171 incubated for 24 hrs by broth dilution method; format: functional; conditions: NCTC 7171, 24 h
Enterococcus faecium [11] = test: Potency index, ratio of solithromycin MIC to compound MIC for multi drug resistant Enterococcus faecium NCTC 7171; format: functional
Staphylococcus aureus [12] = test: Antibacterial activity against resistant Staphylococcus aureus UCN18 incubated for 18 hrs by broth dilution method; format: functional; conditions: UCN18, 18 h
Escherichia coli [13] = test: Antibacterial activity against resistant Escherichia coli DK3535 incubated for 20 hrs by broth dilution method; format: functional; conditions: DK3535, 20 h
Staphylococcus aureus [14] = test: Antibacterial activity against resistant Staphylococcus aureus UCN17 incubated for 18 hrs by broth dilution method; format: functional; conditions: UCN17, 18 h
Staphylococcus aureus [15] = test: Antibacterial activity against resistant Staphylococcus aureus UCN14 incubated for 18 hrs by broth dilution method; format: functional; conditions: UCN14, 18 h
Staphylococcus aureus [16] = test: Potency index, ratio of solithromycin MIC to compound MIC for wild type Staphylococcus aureus ATCC 29213; format: functional
Escherichia coli [17] = test: Potency index, ratio of solithromycin MIC to compound MIC for resistant Escherichia coli SQ1712058G; format: functional
Escherichia coli [18] = test: Potency index, ratio of solithromycin MIC to compound MIC for resistant Escherichia coli SQ171; format: functional
Acinetobacter baumannii [19] = test: Potency index, ratio of solithromycin MIC to compound MIC for multidrug-resistant Acinetobacter baumannii ATCC 19606; format: functional, ATCC 19606 = CIP 70.34 = JCM 6841
Escherichia coli [20] = test: Potency index, ratio of solithromycin MIC to compound MIC for resistant Escherichia coli DK3535; format: functional

Structure (SMILES)	MIC (Escherichia coli [1]) [µg/mL]	MIC (Escherichia coli [2]) [µg/mL]	CC50 at 72 h [3] [µg/mL]	MIC (Staphylococcus aureus [4]) [µg/mL]	MIC (Escherichia coli [5]) [µg/mL]	selectivity ratio [6]	MIC (Escherichia coli [7]) [µg/mL]	MIC (Acinetobacter baumannii [8]) [µg/mL]	Ratio (Escherichia coli [9])	MIC (Enterococcus faecium [10]) [ng/mL]	Ratio (Enterococcus faecium [11])	MIC (Staphylococcus aureus [12]) [µg/mL]	MIC (Escherichia coli [13]) [µg/mL]	MIC (Staphylococcus aureus [14]) [µg/mL]	MIC (Staphylococcus aureus [15]) [µg/mL]	Ratio (Staphylococcus aureus [16])	Ratio (Escherichia coli [17])	Ratio (Escherichia coli [18])	Ratio (Acinetobacter baumannii [19])	Ratio (Escherichia coli [20])
CC[C@H]1OC(=O)[C@@](C)(F)C(=O)[C@H](C)[C@@H](O[C@@H]2O[C@H](C)C[C@H](N(C)C)[C@H]2O)[C@](C)(OC)C[C@@H](C)C(=O)[C@H](C)[C@H]2N(CCCCn3cc(-c4cc(O)cc([N+](=O)[O-])c4)nn3)C(=O)O[C@]12C	0.5 (≈ 0.561 µM)	4 (≈ 4.49 µM)	12 (≈ 13.5 µM)	≤ 0.0625	32 (≈ 35.9 µM)	2e+06	> 32	25 (≈ 28.1 µM)	4	0.0059 (≈ 6.62e-06 µM)	4096	8 (≈ 8.98 µM)	8 (≈ 8.98 µM)	4 (≈ 4.49 µM)	16 (≈ 18 µM)	–	–	–	–	–
CC[C@H]1OC(=O)[C@@](C)(F)C(=O)[C@H](C)[C@@H](O[C@@H]2O[C@H](C)C[C@H](N(C)C)[C@H]2O)[C@](C)(OC)C[C@@H](C)C(=O)[C@H](C)[C@H]2N(CCCCn3cc(-c4cccc(NC(C)=O)c4)nn3)C(=O)O[C@]12C	4 (≈ 4.51 µM)	8 (≈ 9.02 µM)	–	0.016 (≈ 0.018 µM)	64 (≈ 72.1 µM)	–	> 64	50 (≈ 56.4 µM)	–	24 (≈ 0.0271 µM)	–	64 (≈ 72.1 µM)	4 (≈ 4.51 µM)	64 (≈ 72.1 µM)	> 128	4 - 8	–	–	–	–
CC[C@H]1OC(=O)[C@@](C)(F)C(=O)[C@H](C)[C@@H](O[C@@H]2O[C@H](C)C[C@H](N(C)C)[C@H]2O)[C@](C)(OC)C[C@@H](C)C(=O)[C@H](C)[C@H]2N(CCCCn3cc(-c4cc(OC)cc([N+](=O)[O-])c4)nn3)C(=O)O[C@]12C	4 (≈ 4.42 µM)	2 (≈ 2.21 µM)	–	≤ 0.0625	16 (≈ 17.7 µM)	–	8 (≈ 8.84 µM)	50 (≈ 55.2 µM)	–	1.5 (≈ 0.00166 µM)	16	32 (≈ 35.4 µM)	2 (≈ 2.21 µM)	32 (≈ 35.4 µM)	64 (≈ 70.7 µM)	–	4	2	–	–
CC[C@H]1OC(=O)[C@@](C)(F)C(=O)[C@H](C)[C@@H](O[C@@H]2O[C@H](C)C[C@H](N(C)C)[C@H]2O)[C@](C)(OC)C[C@@H](C)C(=O)[C@H](C)[C@H]2N(CCCCn3cc(-c4cccc(N)c4)nn3)C(=O)O[C@]12C [SOLITHROMYCIN]	2 (≈ 2.37 µM)	4 (≈ 4.73 µM)	–	0.06 to 0.12 (≈ 0.071 to 0.142 µM)	> 32	–	> 32	25 (≈ 29.6 µM)	–	24 (≈ 0.0284 µM)	–	4 (≈ 4.73 µM)	2 (≈ 2.37 µM)	4 (≈ 4.73 µM)	8 (≈ 9.47 µM)	–	–	–	–	–
CC[C@H]1OC(=O)[C@@](C)(F)C(=O)[C@H](C)[C@@H](O[C@@H]2O[C@H](C)C[C@H](N(C)C)[C@H]2O)[C@](C)(OC)C[C@@H](C)C(=O)[C@H](C)[C@H]2N(CCCCn3cc(-c4cnc(N)s4)nn3)C(=O)O[C@]12C	2 (≈ 2.35 µM)	1 (≈ 1.17 µM)	–	0.25 (≈ 0.293 µM)	> 32	–	> 32	> 50	–	24 (≈ 0.0282 µM)	–	64 (≈ 75.1 µM)	1 (≈ 1.17 µM)	64 (≈ 75.1 µM)	64 (≈ 75.1 µM)	–	–	–	–	–
CC[C@H]1OC(=O)[C@@](C)(F)C(=O)[C@H](C)[C@@H](O[C@@H]2O[C@H](C)C[C@H](N(C)C)[C@H]2O)[C@](C)(OC)C[C@@H](C)C(=O)[C@H](C)[C@H]2N(CCCCn3cc(-c4cccs4)nn3)C(=O)O[C@]12C	2 (≈ 2.39 µM)	1 (≈ 1.2 µM)	–	≤ 0.0625	32 (≈ 38.3 µM)	–	> 64	6.5 (≈ 7.77 µM)	–	49 (≈ 0.0586 µM)	–	8 (≈ 9.57 µM)	1 (≈ 1.2 µM)	8 (≈ 9.57 µM)	32 (≈ 38.3 µM)	–	–	–	4	–
CC[C@H]1OC(=O)[C@H](C)[C@@H](O[C@H]2C[C@@](C)(OC)[C@@H](O)[C@H](C)O2)[C@H](C)[C@@H](O[C@@H]2O[C@H](C)C[C@H](N(C)C)[C@H]2O)[C@](C)(O)C[C@@H](C)C(=O)[C@H](C)[C@@H](O)[C@]1(C)O [ERYTHROMYCIN]	–	–	–	–	–	–	–	–	–	12000 (≈ 16.4 µM)	–	–	–	–	–	–	–	–	–	–
CC[C@H]1OC(=O)[C@@](C)(F)C(=O)[C@H](C)[C@@H](O[C@@H]2O[C@H](C)C[C@H](N(C)C)[C@H]2O)[C@](C)(OC)C[C@@H](C)C(=O)[C@H](C)[C@H]2N(CCCCn3cc(-c4ccc(N)cc4)nn3)C(=O)O[C@]12C	1 (≈ 1.18 µM)	4 (≈ 4.73 µM)	–	≤ 0.031	16 (≈ 18.9 µM)	–	> 32	25 (≈ 29.6 µM)	2	24 (≈ 0.0284 µM)	–	16 (≈ 18.9 µM)	1 (≈ 1.18 µM)	8 (≈ 9.47 µM)	16 (≈ 18.9 µM)	–	–	2	–	2
CC[C@H]1OC(=O)[C@@](C)(F)C(=O)[C@H](C)[C@@H](O[C@@H]2O[C@H](C)C[C@H](N(C)C)[C@H]2O)[C@](C)(OC)C[C@@H](C)C(=O)[C@H](C)[C@H]2N(CCCCn3cc(-c4ccc(OC)cc4)nn3)C(=O)O[C@]12C	2 (≈ 2.33 µM)	2 (≈ 2.33 µM)	–	≤ 0.0625	64 (≈ 74.4 µM)	–	> 64	25 (≈ 29.1 µM)	–	1.5 (≈ 0.00174 µM)	16	32 (≈ 37.2 µM)	2 (≈ 2.33 µM)	32 (≈ 37.2 µM)	> 128	–	–	–	–	–
CC[C@H]1OC(=O)[C@@](C)(F)C(=O)[C@H](C)[C@@H](O[C@@H]2O[C@H](C)C[C@H](N(C)C)[C@H]2O)[C@](C)(OC)C[C@@H](C)C(=O)[C@H](C)[C@H]2N(CCCCn3cc(COc4ccccc4)nn3)C(=O)O[C@]12C	2 (≈ 2.33 µM)	4 (≈ 4.65 µM)	–	≤ 0.0625	> 32	–	> 32	25 (≈ 29.1 µM)	–	12 (≈ 0.014 µM)	2	4 (≈ 4.65 µM)	4 (≈ 4.65 µM)	8 (≈ 9.3 µM)	64 (≈ 74.4 µM)	–	–	–	–	–
CC[C@H]1OC(=O)[C@@](C)(F)C(=O)[C@H](C)[C@@H](O[C@@H]2O[C@H](C)C[C@H](N(C)C)[C@H]2O)[C@](C)(OC)C[C@@H](C)C(=O)[C@H](C)[C@H]2N(CCCCn3cc(-c4ccsc4)nn3)C(=O)O[C@]12C	4 (≈ 4.78 µM)	4 (≈ 4.78 µM)	25 (≈ 29.9 µM)	0.25 (≈ 0.299 µM)	8 (≈ 9.57 µM)	270000	> 64	12 (≈ 14.4 µM)	–	0.094 (≈ 0.000112 µM)	256	128 (≈ 153 µM)	4 (≈ 4.78 µM)	128 (≈ 153 µM)	128 (≈ 153 µM)	–	–	–	2	–
CC[C@H]1OC(=O)[C@H](C)[C@@H](O[C@H]2C[C@@](C)(OC)[C@@H](O)[C@H](C)O2)[C@H](C)[C@@H](O[C@@H]2O[C@H](C)C[C@H](N(C)C)[C@H]2O)[C@](C)(O)C[C@@H](C)CN(C)[C@H](C)[C@@H](O)[C@]1(C)O [AZITHROMYCIN]	–	–	–	–	–	–	–	–	–	25000 (≈ 33.4 µM)	–	–	–	–	–	–	–	–	–	–
